Like-named read-outs stand apart in the source and are kept apart here. One block for each compound: values may come before it.
What was measured:
α1 = assay: Radioligand binding, [3H]prazosin, human cerebral cortex (HCC) membranes; conditions: 22° C., 30 minutes
Procedure: Tissue preparation: Membrane suspensions were prepared from human cerebral cortex (HCC) obtained from the UCI Organ and Tissue Bank and rat kidney cortex (RKC). Briefly, tissues (1 g) were homogenized in 25 ml of iced-cold 5 mM tris, pH 7.4 with a Polytron homogenizer for 30 secs at setting# 7, and centrifuged for. 10-12 minutes at 300×g at 4° C. The supernatant was filtered: through 2 layers of gauze and diluted 1:2 with 50 mM Tris-HCI buffer, pH 7.4, then centrifuged at 49,000×g for 20 minutes. The pellet fraction was washed 3 times (resuspended in Tris-HCl buffer and centrifuged for 20 minutes at 49,000×g). The pellet was then stored at −80° C. until the binding assay.
(§1) Binding studies: The radioligands [^3H]rauwolscine (specific activity 80 Ci/mmol) and [^3H]prazosin (specific activity 76 Ci/mmol) were obtained from New England Nuclear, Boston, Mass. Frozen membrane pellet was resuspended in 25 mM glycine/glycine, pH 7.4 and incubated with radioligand under the following conditions: CHO—C10, CHO—RNG, HT-29-[^3H]rauwolscine, 22° C., 30 minutes; RKC-[^3H]rauwolscine, 0° C., 120 minutes; and, HCC-[^3H]prazosin, 22° C., 30 minutes in a final volume of 500 μl. At the end of the incubation period, the samples were filtered through glass fiber filters (Whatman GF/B) in a 96 well cell harvester and rapidly washed four times with 4 ml of ice-cold 50 mM, Tris-HCl buffer. The filters were then oven dried and transferred to scintillation vials containing 5 ml of Beckman's Ready Protein® scintillation cocktail for counting. […] Protein concentrations were determined with a protein assay kit from Bio Rad. Binding isotherms, equilibrium dissociation and affinity constants were analyzed and determined by the non-linear least squares curve fitting programs AccuFit Competition/Saturation by Beckman.
(§2) Frozen membrane pellet was resuspended either 50 mM tris, 2 mM EGTA, 1 mM MgCl2, pH7.5 (RbKC, RbICB-[^3H]brimonidine); 50 mM tris, 0.5 mM EDTA, 5 mM NaCl, pH 7.7 (RbICB-[^3H]rauwolscine); 25 mM glycine/glycine, pH 7.4 (RtKC, CHO—C10, CH—RNG, HT-29, HCC) or 50 mM tris, 0.1 mM MnCl2, pH7.7 (RtCC). Membrane protein homogenate (75-200 μg) was incubated with radioligand under the following conditions: RbKC and RbICB-[^3H]rauwolscine, 22° C., 45 minutes; RtCC and RbICB-[^3H]brimondine, 22° C., 90 minutes; CHO—C10, CHO—RNG and HT-29-[^3H]rauwolscine, 22° C., 30 minutes; HCC—[^3H]prazosin, 22° C., 30 minutes; and, in a final volume of 250 or 500 μl. At the end of the incubation period, the samples were filtered through glass fiber filters (Whatman GF/B) in a 24 or 96 well cell harvester and rapidly washed four times with 4 mls of iced-cold 50 mM Tris-HCl buffer. The filters were then oven dried and transferred to scintillation vials containing 10 mls of, Beckman's Ready Protein® scintillation cocktail for counting. […] Protein concentrations were determined with a protein assay kit from Bio Rad. Binding isotherms, equilibrium dissociation and affinity constants were analyzed and determined by the non-linear least squares curve fitting programs EBDA (BioSoft) or AccuFit Competition/Saturation by Beckman.
The radioligands [^3H]rauwolscine (specific activity 80 Ci/mmol) and [^3H]prazosin (specific activity 76 Ci/mmol) were obtained from New England Nuclear, Boston, Mass. Frozen membrane pellet was resuspended in 25 mM glycine/glycine, pH 7.4 and incubated with radioligand under the following conditions: CHO—C10, CHO—RNG-[^3H]rauwolscine, 22° C., 30 minutes; and, HCC—[^3H]prazosin, 22° C., 30 minutes in a final volume of 500 ul.

[1] = molecular target: T1, human α2A (CHO-C10) receptor (Homo sapiens, UniProt P08913); assay: Radioligand binding, [3H]rauwolscine, CHO-C10 cell membranes; conditions: CHO-C10, 22° C., 30 minutes
T1 construct: expressed in transfected cells; host or cells: CHO (CHO-C10)
T1 sequence (P08913 1-465): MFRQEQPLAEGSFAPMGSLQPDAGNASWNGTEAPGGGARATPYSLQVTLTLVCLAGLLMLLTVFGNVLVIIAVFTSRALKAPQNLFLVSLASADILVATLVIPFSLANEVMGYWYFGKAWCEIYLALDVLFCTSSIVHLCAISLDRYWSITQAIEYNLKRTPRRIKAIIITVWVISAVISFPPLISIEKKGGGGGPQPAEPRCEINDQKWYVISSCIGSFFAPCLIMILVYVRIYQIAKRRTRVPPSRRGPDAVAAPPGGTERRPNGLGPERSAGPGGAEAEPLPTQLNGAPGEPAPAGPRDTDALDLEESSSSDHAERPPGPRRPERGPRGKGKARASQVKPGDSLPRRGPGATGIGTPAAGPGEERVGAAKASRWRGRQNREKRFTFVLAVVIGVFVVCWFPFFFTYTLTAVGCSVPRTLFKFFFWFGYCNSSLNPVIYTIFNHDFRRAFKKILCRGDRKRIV
Procedure: (§3) Cell preparation: HT-29 and chinese hamster ovary (CHO) cells expressing the human α2A (CHO—C10) receptor and CHO cells (CHO—RNG) expressing the rat α2B adrenoceptor were grown to near confluency in Dulbecco's modified Eagle's medium supplemented with 10% fetal bovine serum using standard cell culture methods. Cells were harvested by scraping and placed into cold buffer of the following composition: 50 mM Tris-HCl, 5 mM EDTA, pH 7.4). Cells were then homogenized with a Polytron homogenizer for 2×10 secs at setting # 7, arid centrifuged for 20 minutes at 49,000×g. The pellet fraction was washed (resuspended in Tris-HCl, pH 8 buffer and centrifuged for 15-20 minutes at 49,000×g) 2 times and stored at −100° C. until binding assay.
as §1, §2
(§4) Cell preparation: Chinese hamster ovary (CHO) cells expressing the human α2A (CHO—C10) and the rat α2B (CHO—RNG) adrenoceptors were grown to near confluency in Dulbecco's modified Eagle's medium supplemented with 10% fetal bovine serum using standard cell culture methods. Cells were harvested by scraping and placed into cold buffer of the following composition: 50 mM Tris-HCl, 5 mM EDTA, pH 7.4). Cells were then homogenized with a Polytron homogenizer for 2×10 secs at setting #7, and centrifuged for 20 minutes at 49,000×g.

[2] = molecular target: T2, rat α2B adrenoceptor (CHO-RNG) (Rattus norvegicus, UniProt P19328); assay: Radioligand binding, [3H]rauwolscine, CHO-RNG cell membranes; conditions: 22° C., 30 minutes
T2 construct: expressed in transfected cells; host or cells: CHO (CHO-RNG)
T2 sequence (P19328 1-453): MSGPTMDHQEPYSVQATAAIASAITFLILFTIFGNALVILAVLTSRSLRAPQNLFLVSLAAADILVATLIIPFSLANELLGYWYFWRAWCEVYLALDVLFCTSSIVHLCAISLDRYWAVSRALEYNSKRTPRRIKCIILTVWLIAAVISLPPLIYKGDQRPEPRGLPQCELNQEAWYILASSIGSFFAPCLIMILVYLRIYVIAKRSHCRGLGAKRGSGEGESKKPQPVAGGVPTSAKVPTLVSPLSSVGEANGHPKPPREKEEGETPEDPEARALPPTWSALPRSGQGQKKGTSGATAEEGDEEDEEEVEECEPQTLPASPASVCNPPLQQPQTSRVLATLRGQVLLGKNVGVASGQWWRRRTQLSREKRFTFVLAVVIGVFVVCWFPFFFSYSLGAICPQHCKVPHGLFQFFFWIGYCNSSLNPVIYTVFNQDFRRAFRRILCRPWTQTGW
Procedure: as §3, §1, §2, §4

[3] = read-out: Ki (nM) α2A (CHO-C10)
[4] = read-out: Ki (nM) α2B (CHO-RNG)

SMILES: c1ccc(CCNC2=NCCO2)cc1
Ki (α1): 11100 nM
Ki [1, 3]: 1750 nM
Ki [2, 4]: 4170 nM

SMILES: c1ccc(C2C3CCC(C3)C2NC2=NCCN2)cc1 (centres unmarked)
Ki ([1]; Ki (nM) α2A (CHO-C10)): 14.3 nM
Ki ([2]; Ki (nM) α2B (CHO-RNG)): 72 nM

SMILES: NC1C2CCC(C2)C1c1ccccc1 (centres unmarked)
Ki (α1): 11000 nM
Ki [1, 3]: 6570 nM
Ki [2, 4]: 6100 nM

SMILES: c1cc2c(cc1C1C3CCC(C3)C1NC1=NCCO1)OCO2 (centres unmarked)
Ki (α1): 1860 nM
Ki [1, 3]: 1.1 nM
Ki [2, 4]: 4.6 nM

SMILES: CCCC1CCCCC1NC1=NCCO1 (centres unmarked)
Ki (α1): 1600 nM
Ki [1, 3]: 0.6 nM
Ki [2, 4]: 8.3 nM

SMILES: c1ccc(C2C3CCC(C3)C2NC2=NCCO2)cc1 (centres unmarked) [drawing 7]
Ki (α1): 1860 nM
Ki [1, 3]: 3.1 nM
Ki [2, 4]: 7.8 nM

SMILES: c1ccc(C2C3CCC(C3)C2NC2=NCCO2)cc1 (centres unmarked) [drawing 10]
Ki (α1): 73 nM
Ki [1, 3]: 1.9 nM
Ki [2, 4]: 27 nM

SMILES: C1COC(NC23CC4CC(CC(C4)C2)C3)=N1 [drawing 26]
Ki (α1): > 10000 nM
Ki [1, 3]: 102 nM
Ki [2, 4]: 358 nM

Results, then the compound that gave them:

Ki (α1): 24800 nM
Ki [1, 3]: 59 nM
Ki [2, 4]: 616 nM
SMILES: CCC1C2CCC(C2)C1NC1=NCCO1 (centres unmarked)

Ki (α1): > 100000 nM
Ki [1, 3]: 67200 nM
Ki [2, 4]: 57100 nM
SMILES: CCC1C2CCC(C2)C1N (centres unmarked)

Ki (α1): > 100000 nM
Ki [1, 3]: 23300 nM
Ki [2, 4]: 20900 nM
SMILES: CC(C)C1C2CCC(C2)C1N (centres unmarked)

Ki (α1): > 10000 nM
Ki [1, 3]: 4.2 nM
Ki [2, 4]: 11.5 nM
SMILES: C1COC(NC2CC3CCC2C3)=N1 (centres unmarked)

Ki (α1): > 10000 nM
Ki [1, 3]: 368 nM
Ki [2, 4]: 1930 nM
SMILES: CC1(C)C2CCC1(C)C(NC1=NCCO1)C2 (centres unmarked)

Ki (α1): 32500 nM
Ki [1, 3]: 119 nM
Ki [2, 4]: 770 nM
SMILES: C1COC(NC2CC3CCC2CC3)=N1 (centres unmarked)

Ki (α1): 8600 nM
Ki [1, 3]: 25 nM
Ki [2, 4]: 256 nM
SMILES: CCCC1C2CCC(C2)C1NC1=NCCO1 (centres unmarked) [drawing 17]

Ki (α1): 8850 nM
Ki [1, 3]: 9.8 nM
Ki [2, 4]: 28.1 nM
SMILES: CCCC1C2CCC(C2)C1NC1=NCCO1 (centres unmarked) [drawing 18]

Ki (α1): 35000 nM
Ki [1, 3]: 352 nM
Ki [2, 4]: 1840 nM
SMILES: C1COC(NC23CC4CC(CC(C4)C2)C3)=N1 [drawing 27]

From US6706747B2, “Conformationally rigid bicyclic and adamantane derivatives useful as α2-adrenergic blocking agents” (Allergan, Inc., priority 1994, dated 2004)
